In patent publication US4247712A, “Preservation of aqueous systems with 2-chloro-3-oxobutyramide derivatives” (Givaudan Corporation, priority 1979, dated 1981):
In brackets after ≈: the same amount, converted by molar mass. Where two headings read alike, the source gives them in different places.

How the values were obtained:
Type in all cases: cell-based
Aspergillus niger [1] = assay: General antimicrobial activity, 5-fold serial dilution test in agar (MIC); conditions: 168 h, 28° C., seven days, growth only at lower concentration of range, read-out: minimum inhibitory concentration (MIC), F1
Method: (§1) General antibacterial and antifungal activity was evaluated by a 5-fold serial dilution test in agar. In this test, compounds were prepared as 6% solutions in dimethylformamide or ethanol. The 6% solution was then 5-fold serially diluted in test tubes to give the desired concentrations when mixed with agar and poured into sterile Petri dishes. Tryptone glucose extract agar was used for the bacterial testing; mildew glucose agar for the fungal testing. The bacterial plates were spot inoculated with 24-hour nutrient broth cultures and incubated at 37° C. for 48 hours. The fungal plates were spot inoculated with spore suspensions and incubated at 28° C. for seven days. At the end of the incubation periods, all plates were examined for growth. The minimum inhibitory concentration (MIC) for each organism is expressed in Table I. In the ranges presented, growth is observed only at the lower concentration.
(§2) The activity is presented in Tabular Form (Table I) using the following key.

Aspergillus oryzae = assay: as above; conditions: 168 h, 28° C., seven days, growth only at lower concentration of range, read-out: minimum inhibitory concentration (MIC), F2
Method: as §1, §2

Aureobasidium pullulans = assay: as above; conditions: 168 h, 28° C., seven days, growth only at lower concentration of range, read-out: minimum inhibitory concentration (MIC), F4
Method: as §1, §2

Bacillus subtilis = assay: as above; conditions: 37° C., 48 hours, growth only at lower concentration of range, read-out: minimum inhibitory concentration (MIC), B5
Method: as §1, §2

Escherichia coli = assay: as above; conditions: 37° C., 48 hours, growth only at lower concentration of range, read-out: minimum inhibitory concentration (MIC), B2
Method: as §1, §2

Penicillium piscarium = assay: as above; conditions: 168 h, 28° C., seven days, growth only at lower concentration of range, read-out: minimum inhibitory concentration (MIC), F3
Method: as §1, §2

Proteus vulgaris = assay: as above; conditions: 37° C., 48 hours, growth only at lower concentration of range, read-out: minimum inhibitory concentration (MIC), B4
Method: as §1, §2

Pseudomonas aeruginosa [2] = assay: as above; conditions: 37° C., 48 hours, growth only at lower concentration of range, read-out: minimum inhibitory concentration (MIC), B3
Method: as §1, §2

Staphylococcus aureus = assay: as above; conditions: 37° C., 48 hours, growth only at lower concentration of range, read-out: minimum inhibitory concentration (MIC), B1
Method: as §1, §2

Aspergillus niger [3] = assay: Utility as a cosmetic preservative (cosmetic lotion); conditions: weekly reinoculation
Method: (§3) The 2-Chloro-3-oxobutyramide derivatives are effective cosmetic preservatives. Two-fold serial dilutions of 6% solutions of the 2-haloacetoacetic acid derivatives in dimethylformamide were added to a cosmetic lotion of the following formulation: |Stearic acid 1.4 g |Arlacel 60 (sorbitan |monostearate) 0.7 g |Tween 20 Polyoxethylene |(20) sorbitan |monostearate 1.6 g |Distilled water 94.0 g The lotions were inoculated with both Pseudomonas aeruginosa and Aspergillus niger and incubated at 28° C. At weekly intervals, the lotions were examined for microorganisms by conventional streak-plate methods or by macroscopic observation. The lotions were then reinoculated with the test organisms and reincubated.

Pseudomonas aeruginosa [4] = assay: as above; conditions: weekly reinoculation
Method: as §3

Pseudomonas aeruginosa [5] = assay: Utility in water and oil emulsions (3.3% cutting oil emulsions); conditions: 28° C., weekly reinoculation, read-out: Minimum Inhibitory Concentration Range
Method: The utility of the 2-chloro-3-oxobutyramide derivatives in water and oil emulsions is illustrated below using a commercially available cutting oil. In running these tests, two-fold serial dilutions of 6% solutions of the compound in dimethylformamide was added to 3.3% cutting oil emulsions. The emulsions were prepared by diluting with water a commercially available cutting oil concentrate. The emulsions were inoculated with a culture of Pseudomonas aeruginosa and incubated at 28° C. on a rotary shaker. At weekly intervals, the emulsions were examined for bacteria by conventional streak-plate methods. The emulsions were then reinoculated with Pseudomonas aeruginosa and reincubated. […] indicate the activity range for that compound.

A. niger = assay: Effectiveness as slimicide for pulp and paper mill water systems; conditions: range: growth at lower, none at higher, 62.5 = lowest concentration tested, no growth at it
Method: (§4) Various quantities of a 6% solution of this compound in dimethylformamide were incorporated into 24 ml of a test substrate composed as follows: 84.4 g Whatman No. 2 powdered cellulose 2.6 g Sodium nitrate 1.0 g Calcium sulfate 6.5 g Maltose 1.0 g Nutrient Broth, Difco 10.0 ml Mersize Rm […] (Monsanto) 2.5 ml 2% Alum 900 ml Distilled water The samples were inoculated with four different organisms and incubated at 28° C. At weekly intervals the samples were examined for the presence of microbial growth and reinoculated during a total incubation period of four weeks.

E. aerogenes = assay: as above; conditions: Klebsiella aerogenes, range: growth at lower, read-out: Effectiveness as slimicide (inhibitory concentration range)
Method: as §4

P. aeruginosa = assay: as above; conditions: 62.5 = lowest concentration tested, no growth at it
Method: as §4

P. piscarium = assay: as above; conditions: read-out: Effectiveness as slimicide (inhibitory concentration range)
Method: as §4

[6] = tested on: broad spectrum of microorganisms including gram positive bacteria, gram negative bacteria and molds; assay: Antimicrobial activity, general statement in the text
[7] = Week 1, 3.3% cutting oil emulsion
[8] = Week 2, 3.3% cutting oil emulsion
[9] = Week 3, 3.3% cutting oil emulsion
[10] = Week 4, 3.3% cutting oil emulsion

Row | SMILES | MIC (Aspergillus niger [1]) | MIC (Aspergillus oryzae) | MIC (Aureobasidium pullulans) | MIC (Bacillus subtilis) | MIC (Escherichia coli) | MIC (Penicillium piscarium) | MIC (Proteus vulgaris) | MIC (Pseudomonas aeruginosa [2]) | MIC (Staphylococcus aureus) | minimum inhibitory concentration effective in preventing microbial growth (Aspergillus niger [3]; Week 1, 28° C.) | minimum inhibitory concentration effective in preventing microbial growth (Aspergillus niger [3]; Week 2, 28° C.) | minimum inhibitory concentration effective in preventing microbial growth (Aspergillus niger [3]; Week 3, 28° C.) | minimum inhibitory concentration effective in preventing microbial growth (Aspergillus niger [3]; Week 4, 28° C.) | minimum inhibitory concentration effective in preventing microbial growth (Pseudomonas aeruginosa [4]; Week 1, 28° C.) | minimum inhibitory concentration effective in preventing microbial growth (Pseudomonas aeruginosa [4]; Week 2, 28° C.) | minimum inhibitory concentration effective in preventing microbial growth (Pseudomonas aeruginosa [4]; Week 3, 28° C.) | minimum inhibitory concentration effective in preventing microbial growth (Pseudomonas aeruginosa [4]; Week 4, 28° C.) | MIC (Pseudomonas aeruginosa [5]; [7]) | MIC (Pseudomonas aeruginosa [5]; [8]) | MIC (Pseudomonas aeruginosa [5]; [9]) | also measured
1 | CC(=O)C(Cl)C(N)=O (centres unmarked) [2-Chloro-3-oxobutyramide] | 15.3 to 76.8 mg/L (≈ 113 to 567 µM) | 15.3 to 76.8 mg/L (≈ 113 to 567 µM) | 15.3 to 76.8 mg/L (≈ 113 to 567 µM) | 15.3 to 76.8 mg/L (≈ 113 to 567 µM) | 15.3 to 76.8 mg/L (≈ 113 to 567 µM) | 15.3 to 76.8 mg/L (≈ 113 to 567 µM) | 15.3 to 76.8 mg/L (≈ 113 to 567 µM) | 15.3 to 76.8 mg/L (≈ 113 to 567 µM) | 15.3 to 76.8 mg/L (≈ 113 to 567 µM) | 5 (63-125 mcg/gm) | 5 (63-125 mcg/gm) | 4 (125-250 mcg/gm) | 2 (500-1000 mcg/gm) | 5 (63-125 mcg/gm) | 5 (63-125 mcg/gm) | 4 (125-250 mcg/gm) | 4 (125-250 mcg/gm) | 8 to 16 mg/L (≈ 59 to 118 µM) | 63 to 125 mg/L (≈ 465 to 922 µM) | 63 to 125 mg/L (≈ 465 to 922 µM) | MIC (Pseudomonas aeruginosa [5]; [10]): 63 to 125 mg/L (≈ 465 to 922 µM); MIC (A. niger; Aspergillus niger, week 1, 28° C., read-out: Effectiveness as slimicide (inhibitory concentration range)): 62.5 mg/L (≈ 461 µM); Effectiveness as slimicide (inhibitory concentration range) (A. niger; week 2, 28° C.): 62.5 µg/mL; Effectiveness as slimicide (inhibitory concentration range) (A. niger; week 3, 28° C.): 62.5 µg/mL; Effectiveness as slimicide (inhibitory concentration range) (A. niger; week 4, 28° C.): 62.5 µg/mL; MIC (E. aerogenes; week 1, 28° C., none at higher, 62.5 = lowest concentration tested, no growth at it): 62.5 mg/L (≈ 461 µM); MIC (E. aerogenes; week 2, 28° C., none at higher, 62.5 = lowest concentration tested, no growth at it): 62.5 mg/L (≈ 461 µM); MIC (E. aerogenes; week 3, 28° C., none at higher concentration): 62.5 to 125 mg/L (≈ 461 to 922 µM); MIC (E. aerogenes; week 4, 28° C., none at higher concentration): 62.5 to 125 mg/L (≈ 461 to 922 µM); MIC (P. aeruginosa; Pseudomonas aeruginosa, week 1, 28° C., read-out: Effectiveness as slimicide (inhibitory concentration range)): 62.5 mg/L (≈ 461 µM); Effectiveness as slimicide (inhibitory concentration range) (P. aeruginosa; week 2, 28° C.): 62.5 µg/mL; Effectiveness as slimicide (inhibitory concentration range) (P. aeruginosa; week 3, 28° C.): 62.5 µg/mL; Effectiveness as slimicide (inhibitory concentration range) (P. aeruginosa; week 4, 28° C.): 62.5 µg/mL; MIC (P. piscarium; week 1, 28° C., 62.5 = lowest concentration tested, no growth at it): 62.5 mg/L (≈ 461 µM); MIC (P. piscarium; week 2, 28° C., range: growth at lower, none at higher concentration): 62.5 to 125 mg/L (≈ 461 to 922 µM); MIC (P. piscarium; week 3, 28° C., range: growth at lower, none at higher concentration): 125 to 250 mg/L (≈ 922 to 1840 µM); MIC (P. piscarium; week 4, 28° C., range: growth at lower, none at higher concentration): 125 to 250 mg/L (≈ 922 to 1840 µM)
2 | CC(=O)C(Cl)C(=O)N(C)C (centres unmarked) [R1=CH3, R2=CH3, 2-chloro-N,N-dimethyl-3-oxobutyramide] | 384 to 1920 mg/L (≈ 2350 to 11700 µM) | 384 to 1920 mg/L (≈ 2350 to 11700 µM) | 76.8 to 384 mg/L (≈ 469 to 2350 µM) | 384 to 1920 mg/L (≈ 2350 to 11700 µM) | 76.8 to 384 mg/L (≈ 469 to 2350 µM) | 384 to 1920 mg/L (≈ 2350 to 11700 µM) | 76.8 to 384 mg/L (≈ 469 to 2350 µM) | 384 to 1920 mg/L (≈ 2350 to 11700 µM) | 384 to 1920 mg/L (≈ 2350 to 11700 µM) | 1 (1000-2000 mcg/gm) | 1 (1000-2000 mcg/gm) | 1 (1000-2000 mcg/gm) | 1 (1000-2000 mcg/gm) | 2 (500-1000 mcg/gm) | 2 (500-1000 mcg/gm) | 2 (500-1000 mcg/gm) | 2 (500-1000 mcg/gm) | 125 to 500 mg/L (≈ 764 to 3060 µM) | 250 to 500 mg/L (≈ 1530 to 3060 µM) | 250 to 500 mg/L (≈ 1530 to 3060 µM) | MIC (Pseudomonas aeruginosa [5]; [10]): 250 to 500 mg/L (≈ 1530 to 3060 µM); antimicrobial activity (in words) [6]: high level of activity
